Assay results reported in ChEMBL document CHEMBL1201862, “PubChem BioAssay data set” (2004).
Active and inactive are the calls of the source.

Key:
[1] = molecular target: T1, Short transient receptor potential channel 4 (Mus musculus, UniProt Q9QUQ5); assay: calcium entry via TRPC4 opening agents – cell-based, HEK293 TRPC4/mu-opioid, Fluo-4 calcium, dose response (AID 434937); type: functional
T1 sequence (Q9QUQ5 whole entry): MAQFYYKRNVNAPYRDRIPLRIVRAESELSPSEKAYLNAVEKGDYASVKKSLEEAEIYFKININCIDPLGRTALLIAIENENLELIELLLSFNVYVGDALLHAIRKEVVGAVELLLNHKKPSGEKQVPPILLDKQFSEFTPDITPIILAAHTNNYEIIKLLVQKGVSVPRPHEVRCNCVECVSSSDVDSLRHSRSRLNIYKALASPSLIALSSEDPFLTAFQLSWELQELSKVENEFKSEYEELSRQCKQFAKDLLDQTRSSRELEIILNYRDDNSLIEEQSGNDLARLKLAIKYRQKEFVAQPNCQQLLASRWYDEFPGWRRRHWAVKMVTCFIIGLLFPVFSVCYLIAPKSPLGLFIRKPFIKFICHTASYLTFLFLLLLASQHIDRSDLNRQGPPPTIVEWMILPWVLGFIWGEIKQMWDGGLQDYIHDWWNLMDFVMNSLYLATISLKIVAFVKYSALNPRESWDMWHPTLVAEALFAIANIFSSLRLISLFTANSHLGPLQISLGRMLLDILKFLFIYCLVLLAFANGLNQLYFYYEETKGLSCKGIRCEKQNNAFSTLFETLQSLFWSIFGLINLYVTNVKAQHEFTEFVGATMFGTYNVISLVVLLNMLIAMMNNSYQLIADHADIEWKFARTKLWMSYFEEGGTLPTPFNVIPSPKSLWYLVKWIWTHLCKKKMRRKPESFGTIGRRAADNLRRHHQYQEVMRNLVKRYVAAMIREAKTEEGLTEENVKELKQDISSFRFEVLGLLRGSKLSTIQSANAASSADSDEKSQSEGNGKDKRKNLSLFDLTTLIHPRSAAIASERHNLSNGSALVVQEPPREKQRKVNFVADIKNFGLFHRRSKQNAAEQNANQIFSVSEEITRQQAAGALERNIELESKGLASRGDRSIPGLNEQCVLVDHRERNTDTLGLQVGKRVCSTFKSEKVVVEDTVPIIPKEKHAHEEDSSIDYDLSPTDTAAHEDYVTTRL

Cytochrome P450 3A4 = Cytochrome P450 3A4 (Homo sapiens, UniProt P08684);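 note: CYP3A4 tested as one member of a cytochrome P450 panel screen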
Cytochrome P450 3A4, sequence (P08684 whole entry): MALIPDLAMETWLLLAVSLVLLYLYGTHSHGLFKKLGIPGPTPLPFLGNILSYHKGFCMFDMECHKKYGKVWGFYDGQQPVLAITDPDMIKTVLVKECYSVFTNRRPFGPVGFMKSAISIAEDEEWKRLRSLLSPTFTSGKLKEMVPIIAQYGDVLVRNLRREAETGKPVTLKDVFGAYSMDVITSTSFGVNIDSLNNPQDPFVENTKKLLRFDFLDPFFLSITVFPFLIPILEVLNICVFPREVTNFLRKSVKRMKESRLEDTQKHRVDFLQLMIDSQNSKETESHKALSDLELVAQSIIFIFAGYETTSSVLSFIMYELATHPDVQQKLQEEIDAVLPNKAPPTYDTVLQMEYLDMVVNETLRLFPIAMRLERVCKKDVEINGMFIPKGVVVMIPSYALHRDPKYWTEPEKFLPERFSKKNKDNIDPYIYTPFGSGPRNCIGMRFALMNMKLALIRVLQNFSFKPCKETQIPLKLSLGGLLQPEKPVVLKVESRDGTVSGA

Estrogen receptor = molecular target: T2, Estrogen receptor (Homo sapiens, UniProt P03372);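 note: potency for inhibiting coactivator peptide recruitment to the receptor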
T2 sequence (P03372 whole entry): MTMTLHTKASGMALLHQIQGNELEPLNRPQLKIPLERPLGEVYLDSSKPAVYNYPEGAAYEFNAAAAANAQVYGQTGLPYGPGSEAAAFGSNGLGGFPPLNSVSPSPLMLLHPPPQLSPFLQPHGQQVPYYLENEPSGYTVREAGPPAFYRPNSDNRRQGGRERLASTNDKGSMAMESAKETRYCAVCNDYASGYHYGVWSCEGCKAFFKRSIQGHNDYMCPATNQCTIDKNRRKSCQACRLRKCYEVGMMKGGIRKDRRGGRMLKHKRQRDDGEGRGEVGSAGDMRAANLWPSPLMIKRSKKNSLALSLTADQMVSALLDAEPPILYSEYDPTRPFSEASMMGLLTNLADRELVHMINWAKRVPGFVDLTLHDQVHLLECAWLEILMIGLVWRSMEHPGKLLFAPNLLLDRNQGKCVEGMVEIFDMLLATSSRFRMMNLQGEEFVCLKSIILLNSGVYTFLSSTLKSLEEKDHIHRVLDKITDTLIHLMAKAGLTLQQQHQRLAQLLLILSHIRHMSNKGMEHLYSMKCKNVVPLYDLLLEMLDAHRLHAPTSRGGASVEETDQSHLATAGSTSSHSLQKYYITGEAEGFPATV

SUMO-activating enzyme = SUMO-activating enzyme (Homo sapiens, UniProt Q9UBT2); assay: blockers of UBC9-mediated SUMO conjugation – biochemical, AlphaScreen, SUMOylation inhibitor project, confirmation (AID 2018); type: functional
SUMO-activating enzyme, sequence (Q9UBE0 whole entry): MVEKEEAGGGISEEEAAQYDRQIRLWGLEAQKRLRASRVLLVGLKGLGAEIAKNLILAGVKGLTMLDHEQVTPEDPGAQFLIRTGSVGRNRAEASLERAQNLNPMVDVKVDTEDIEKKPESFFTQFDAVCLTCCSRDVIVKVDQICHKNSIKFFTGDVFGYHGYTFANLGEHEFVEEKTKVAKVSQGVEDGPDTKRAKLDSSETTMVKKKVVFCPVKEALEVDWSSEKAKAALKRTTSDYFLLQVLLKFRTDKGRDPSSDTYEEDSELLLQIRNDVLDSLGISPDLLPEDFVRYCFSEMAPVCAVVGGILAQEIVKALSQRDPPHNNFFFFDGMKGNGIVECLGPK
SUMO-activating enzyme, sequence (Q9UBT2 whole entry): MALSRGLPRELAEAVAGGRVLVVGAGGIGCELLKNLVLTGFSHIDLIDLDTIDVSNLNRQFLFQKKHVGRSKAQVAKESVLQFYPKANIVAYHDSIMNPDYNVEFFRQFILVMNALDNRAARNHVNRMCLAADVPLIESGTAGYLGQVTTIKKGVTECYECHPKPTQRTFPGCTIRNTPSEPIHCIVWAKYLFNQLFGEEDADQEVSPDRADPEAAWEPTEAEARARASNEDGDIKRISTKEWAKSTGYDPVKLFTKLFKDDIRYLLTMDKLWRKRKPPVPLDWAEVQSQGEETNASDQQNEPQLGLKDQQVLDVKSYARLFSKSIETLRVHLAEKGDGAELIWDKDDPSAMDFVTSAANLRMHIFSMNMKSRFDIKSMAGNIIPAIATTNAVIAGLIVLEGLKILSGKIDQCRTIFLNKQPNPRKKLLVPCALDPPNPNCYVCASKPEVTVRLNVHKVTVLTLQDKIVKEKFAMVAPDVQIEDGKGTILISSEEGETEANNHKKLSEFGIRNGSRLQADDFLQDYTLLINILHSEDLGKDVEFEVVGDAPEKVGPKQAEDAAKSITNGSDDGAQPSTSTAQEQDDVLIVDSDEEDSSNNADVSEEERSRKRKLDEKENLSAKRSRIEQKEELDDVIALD

[2] = molecular target: Peroxisome proliferator-activated receptor gamma/Nuclear receptor coactivator 2 (Homo sapiens, UniProt P37231); assay: (§1) TR-FRET dose response biochemical High Throughput Screening assay for agonists of the steroid receptor coactivator 2 (SRC-2) recruitment by the peroxisome proliferator-activated receptor gamma (PPAR gamma): non-selective agonists. [Related pubchem assays: 1297, 1032 ]; type: functional
[3] = molecular target: Peroxisome proliferator-activated receptor gamma/Nuclear receptor coactivator 3 (Homo sapiens, UniProt P37231); assay: as §1, with “3 (SRC-3)” for “2 (SRC-2)”, “1301 (Confirmation screen.), 1048 (Primary screen.)]” for “1297, 1032 ]”; type: functional
Peroxisome proliferator-activated receptor gamma/Nuclear receptor coactivator 3, sequence (P37231 whole entry): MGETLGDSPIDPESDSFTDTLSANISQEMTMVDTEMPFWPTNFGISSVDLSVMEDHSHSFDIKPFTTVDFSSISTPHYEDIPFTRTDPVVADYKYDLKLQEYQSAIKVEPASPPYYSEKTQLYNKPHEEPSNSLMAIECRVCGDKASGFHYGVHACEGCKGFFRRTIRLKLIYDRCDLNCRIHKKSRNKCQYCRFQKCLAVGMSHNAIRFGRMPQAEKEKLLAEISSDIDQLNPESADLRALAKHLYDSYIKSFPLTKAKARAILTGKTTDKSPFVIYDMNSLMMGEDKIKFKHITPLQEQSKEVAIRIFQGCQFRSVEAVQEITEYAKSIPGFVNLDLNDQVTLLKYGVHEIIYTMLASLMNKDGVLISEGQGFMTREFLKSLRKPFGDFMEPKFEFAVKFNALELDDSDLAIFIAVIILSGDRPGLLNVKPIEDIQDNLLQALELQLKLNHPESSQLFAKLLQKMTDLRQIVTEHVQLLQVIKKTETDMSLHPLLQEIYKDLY
Peroxisome proliferator-activated receptor gamma/Nuclear receptor coactivator 3, sequence (Q9Y6Q9 whole entry, further chain): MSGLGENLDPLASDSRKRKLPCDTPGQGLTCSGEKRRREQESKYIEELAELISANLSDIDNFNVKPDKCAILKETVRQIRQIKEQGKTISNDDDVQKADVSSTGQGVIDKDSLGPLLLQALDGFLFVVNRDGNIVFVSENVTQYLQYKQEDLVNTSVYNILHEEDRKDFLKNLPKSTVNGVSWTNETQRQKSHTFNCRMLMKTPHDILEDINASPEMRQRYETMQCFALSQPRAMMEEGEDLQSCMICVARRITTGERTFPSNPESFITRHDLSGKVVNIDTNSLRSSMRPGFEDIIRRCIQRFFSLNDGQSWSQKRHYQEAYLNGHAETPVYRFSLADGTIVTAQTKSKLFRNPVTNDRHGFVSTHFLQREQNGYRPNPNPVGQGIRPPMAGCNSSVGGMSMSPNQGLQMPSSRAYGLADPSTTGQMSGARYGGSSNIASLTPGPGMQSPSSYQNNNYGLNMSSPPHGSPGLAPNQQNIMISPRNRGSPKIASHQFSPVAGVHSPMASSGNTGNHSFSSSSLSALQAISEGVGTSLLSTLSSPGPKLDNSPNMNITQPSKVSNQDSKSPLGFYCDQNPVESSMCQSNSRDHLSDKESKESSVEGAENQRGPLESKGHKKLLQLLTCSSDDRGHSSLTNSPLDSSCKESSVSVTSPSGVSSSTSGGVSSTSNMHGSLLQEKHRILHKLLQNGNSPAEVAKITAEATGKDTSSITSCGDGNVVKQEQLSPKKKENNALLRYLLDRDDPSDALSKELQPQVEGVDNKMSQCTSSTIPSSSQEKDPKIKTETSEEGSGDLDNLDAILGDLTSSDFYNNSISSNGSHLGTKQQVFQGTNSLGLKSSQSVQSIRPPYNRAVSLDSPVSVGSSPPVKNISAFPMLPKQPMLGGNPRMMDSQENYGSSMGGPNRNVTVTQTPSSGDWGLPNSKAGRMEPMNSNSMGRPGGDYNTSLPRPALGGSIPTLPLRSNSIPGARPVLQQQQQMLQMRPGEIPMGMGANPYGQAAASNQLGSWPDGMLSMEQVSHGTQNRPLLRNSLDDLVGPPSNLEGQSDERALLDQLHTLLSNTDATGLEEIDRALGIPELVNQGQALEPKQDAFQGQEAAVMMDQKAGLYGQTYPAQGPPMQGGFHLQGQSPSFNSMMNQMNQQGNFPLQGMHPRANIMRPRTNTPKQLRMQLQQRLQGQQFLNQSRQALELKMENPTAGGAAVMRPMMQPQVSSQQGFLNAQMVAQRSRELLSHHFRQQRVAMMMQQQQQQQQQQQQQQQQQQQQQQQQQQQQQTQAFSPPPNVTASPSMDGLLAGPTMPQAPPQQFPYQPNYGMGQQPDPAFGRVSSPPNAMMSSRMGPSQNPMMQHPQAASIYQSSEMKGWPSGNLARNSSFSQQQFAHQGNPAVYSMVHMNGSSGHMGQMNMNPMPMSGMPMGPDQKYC

[4] = viability loss of HPDE-C7K cells – cell-based, fluorescence, HTS, primary screen (AID 431); type: functional; conditions: Homo sapiens
[5] = molecular target: Peroxisome proliferator-activated receptor gamma/Nuclear receptor coactivator 1 (Homo sapiens, UniProt P37231); assay: as §1, with “1 (SRC-1)” for “2 (SRC-2)”, “assays (depositor defined):AID1300, AID1808, AID504735, AID631]” for “assays: 1297, 1032 ]”; type: protein assay
[6] = HPDE-C7 pancreatic duct cell viability loss – fluorescence, HTS (AID 430); type: functional, cell-based; conditions: Homo sapiens
[7] = test system: Streptococcus sp. 'group A'; assay: Streptococcus pyogenes SK(-)GAS viability under kanamycin – luminescence, BacTiterGlo, confirmation, counter-screen for streptokinase expression inhibitor project, dose response (AID 1900); type: functional, organism-based
Exodeoxyribonuclease V = molecular target: T3, Exodeoxyribonuclease V (Escherichia coli (strain K12), UniProt P04993+P07648+P08394); assay: RecBCD inhibition via phage-restricted bacterial growth – absorbance, V66 E. coli, mutant T4 phage, counter-screen for AddAB inhibitor project, dose response (AID 492957); type: functional, cell-based, Escherichia coli str. K-12 substr. MG1655
T3 sequence (P04993 whole entry): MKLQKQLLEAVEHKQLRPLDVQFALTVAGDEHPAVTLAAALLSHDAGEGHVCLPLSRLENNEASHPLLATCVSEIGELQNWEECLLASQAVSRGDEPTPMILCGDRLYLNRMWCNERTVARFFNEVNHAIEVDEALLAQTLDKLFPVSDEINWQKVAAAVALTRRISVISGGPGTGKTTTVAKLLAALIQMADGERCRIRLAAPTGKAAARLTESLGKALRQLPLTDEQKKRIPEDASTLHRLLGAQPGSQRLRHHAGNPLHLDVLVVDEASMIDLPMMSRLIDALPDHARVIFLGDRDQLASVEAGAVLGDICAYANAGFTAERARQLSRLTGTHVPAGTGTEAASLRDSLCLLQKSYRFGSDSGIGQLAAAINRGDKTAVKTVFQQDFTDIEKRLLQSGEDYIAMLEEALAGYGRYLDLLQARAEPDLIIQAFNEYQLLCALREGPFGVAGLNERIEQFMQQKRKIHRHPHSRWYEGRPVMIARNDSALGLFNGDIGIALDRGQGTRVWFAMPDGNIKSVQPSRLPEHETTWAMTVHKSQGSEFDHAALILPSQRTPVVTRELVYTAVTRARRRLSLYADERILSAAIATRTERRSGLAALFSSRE
T3 sequence (P07648 whole entry): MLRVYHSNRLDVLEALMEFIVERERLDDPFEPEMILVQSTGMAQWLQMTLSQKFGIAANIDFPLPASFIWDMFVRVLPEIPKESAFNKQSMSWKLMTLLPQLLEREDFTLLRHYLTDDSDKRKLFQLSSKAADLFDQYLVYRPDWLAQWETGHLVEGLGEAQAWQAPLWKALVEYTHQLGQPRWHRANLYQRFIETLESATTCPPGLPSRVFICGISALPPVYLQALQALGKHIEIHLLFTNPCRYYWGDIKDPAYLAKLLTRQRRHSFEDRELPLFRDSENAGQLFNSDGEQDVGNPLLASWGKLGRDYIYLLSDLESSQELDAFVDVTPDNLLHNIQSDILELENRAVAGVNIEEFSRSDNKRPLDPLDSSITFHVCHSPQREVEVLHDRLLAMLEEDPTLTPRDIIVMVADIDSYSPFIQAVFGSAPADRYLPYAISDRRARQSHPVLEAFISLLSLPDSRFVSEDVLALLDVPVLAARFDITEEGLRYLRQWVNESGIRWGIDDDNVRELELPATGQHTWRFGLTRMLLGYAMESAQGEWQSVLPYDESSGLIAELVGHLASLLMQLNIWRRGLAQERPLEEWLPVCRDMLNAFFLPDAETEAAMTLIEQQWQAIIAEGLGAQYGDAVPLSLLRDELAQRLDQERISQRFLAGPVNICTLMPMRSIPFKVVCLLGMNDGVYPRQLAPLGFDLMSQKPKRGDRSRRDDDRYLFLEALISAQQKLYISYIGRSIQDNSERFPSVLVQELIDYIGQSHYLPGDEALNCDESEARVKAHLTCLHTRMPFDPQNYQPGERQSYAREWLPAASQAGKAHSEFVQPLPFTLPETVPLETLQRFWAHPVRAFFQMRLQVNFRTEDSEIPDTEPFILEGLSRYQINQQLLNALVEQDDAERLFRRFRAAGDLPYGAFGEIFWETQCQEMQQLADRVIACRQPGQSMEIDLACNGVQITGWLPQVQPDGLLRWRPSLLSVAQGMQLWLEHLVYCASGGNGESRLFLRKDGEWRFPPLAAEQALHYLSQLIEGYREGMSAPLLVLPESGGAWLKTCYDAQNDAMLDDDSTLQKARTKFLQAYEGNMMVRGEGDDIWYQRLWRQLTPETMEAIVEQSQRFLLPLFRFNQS
T3 sequence (P08394 whole entry): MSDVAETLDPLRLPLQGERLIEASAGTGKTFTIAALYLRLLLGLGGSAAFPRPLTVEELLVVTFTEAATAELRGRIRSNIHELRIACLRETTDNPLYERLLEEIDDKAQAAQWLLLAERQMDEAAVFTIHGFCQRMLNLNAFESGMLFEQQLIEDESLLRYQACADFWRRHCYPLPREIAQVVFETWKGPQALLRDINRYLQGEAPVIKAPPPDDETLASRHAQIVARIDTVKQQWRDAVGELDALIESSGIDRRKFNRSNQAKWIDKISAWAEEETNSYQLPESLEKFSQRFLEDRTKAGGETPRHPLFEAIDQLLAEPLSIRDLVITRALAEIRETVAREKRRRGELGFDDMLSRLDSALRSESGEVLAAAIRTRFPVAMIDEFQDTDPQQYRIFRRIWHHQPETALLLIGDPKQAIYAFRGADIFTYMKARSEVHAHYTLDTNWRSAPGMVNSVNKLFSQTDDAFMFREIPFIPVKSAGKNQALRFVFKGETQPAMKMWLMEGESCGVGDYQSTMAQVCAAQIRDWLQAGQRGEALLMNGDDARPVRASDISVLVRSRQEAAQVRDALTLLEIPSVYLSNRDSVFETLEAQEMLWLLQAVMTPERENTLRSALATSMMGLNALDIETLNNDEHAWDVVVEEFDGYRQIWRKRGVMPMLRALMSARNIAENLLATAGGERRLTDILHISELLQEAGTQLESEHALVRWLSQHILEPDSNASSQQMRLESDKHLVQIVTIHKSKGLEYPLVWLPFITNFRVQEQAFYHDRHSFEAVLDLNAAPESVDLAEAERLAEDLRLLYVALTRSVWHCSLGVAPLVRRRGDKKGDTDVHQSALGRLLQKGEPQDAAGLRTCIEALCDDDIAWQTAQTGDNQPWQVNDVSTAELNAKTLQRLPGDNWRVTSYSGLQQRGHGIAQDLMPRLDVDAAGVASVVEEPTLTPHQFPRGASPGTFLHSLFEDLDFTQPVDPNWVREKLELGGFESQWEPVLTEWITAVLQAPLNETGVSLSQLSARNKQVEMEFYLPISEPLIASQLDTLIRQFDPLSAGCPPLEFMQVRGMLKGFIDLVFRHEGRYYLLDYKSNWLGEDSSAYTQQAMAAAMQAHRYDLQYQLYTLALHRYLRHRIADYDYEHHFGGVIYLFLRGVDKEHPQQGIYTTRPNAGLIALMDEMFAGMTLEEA

Vero = assay: cells; type: functional; conditions: Chlorocebus sabaeus
cells [8] = type: functional, cell-based
[9] = reduction of Shn3 3'UTR-driven luciferase in osteoblasts – cell-based, Clone20 osteoblasts, firefly luciferase, cherry-picked, dose response (AID 624132); type: functional;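 note: firefly luciferase luminescence from reporter carrying the Shn3 3'UTR in osteoblasts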
[10] = Trypanosoma cruzi growth suppression in host cells – NIH3T3 host cells, beta-gal luminescence, confirmation (AID 2044); type: functional, cell-based;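 note: intracellular parasites grown in NIH/3T3 mouse fibroblasts as host cells; luminescent beta-galactosidase reporter signal from transgenic T. cruzi replicating inside host cells; inhibitors lower the luminescence signal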
[11] = NIH3T3 cell viability loss – ATP luminescence, mouse fibroblasts, counter-screen, dose response (AID 2010); type: functional, cell-based;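 note: cells exposed to compound for about 90 hours before reading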
Streptococcus = assay: GAS UMAA2166 growth inhibition – luminescence, BacTiterGlo, counter-screen for streptokinase expression inhibitor project, dose response (AID 1915); type: functional, organism-based;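 note: potency for reduction of bacterial viability or growth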
INS1 = assay: INS-1E survival protection against cytokine death – cell-based, luminescence, retest, dose response (AID 449756); type: functional; conditions: Rattus norvegicus;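 note: cell death triggered by IL-1 beta plus TNF-alpha plus IFN-gamma mixture; protective hits raise ATP signal compared with cytokine alone wells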
cells [12] = type: functional, cell-based; remark: listed apart in the source
[13] = Counterscreen for AddAB inhibitors: absorbance-based bacterial cell-based high throughput dose response assay for inhibitors of bacterial viability. [Related pubchem assays (depositor defined):AID435030, AID449728, AID449731, AID488942, AID488955, AID488956]; type: functional
[14] = loss of viability in HepG2 cells – cell-based, CellTiter-Glo, cherry-picked, cytotoxicity control for Shn3 inhibitor project, dose response (AID 624134); type: functional
[15] = non-specific 3'UTR reporter inhibition in Clone20-Shn3RL – cell-based, Renilla luciferase, cherry-picked, counter-screen for Shn3 inhibitor project, dose response (AID 624133); type: functional

Cc1cccc(C(=O)NC(=S)NNC(=O)c2cccs2)c1
EC50 [1]: 2.99 µM (active)

Cn1c(=O)c(-c2ccc(F)cc2)nc2cnc(Oc3ccccc3)nc21
AC50 (Cytochrome P450 3A4): inconclusive

CCOc1cccc2cc(-c3nnc(NCc4ccco4)s3)c(=O)oc12
IC50 (Estrogen receptor): 26.8 µM (active)
IC50 (SUMO-activating enzyme): 45.7 µM (active)

COc1ccc2c(c1O)C13CCN(C)C(C2)C1CCC(=O)C3 (stereo not drawn)
EC50 [1]: 0.168 µM (active)

CCn1c2c(c3cc(Br)ccc31)CCC/C2=N\O
EC50 [2]: 25.7 µM (not active)
EC50 [3]: > 79.4 µM (not active)
EC50 [4]: 10.8 µM (active)
EC50 [5]: > 79.4 µM (inactive)
EC50 [6]: 10.8 µM (active)

CCCC(=O)NC(c1ccc(Cl)cc1Cl)c1ccc2cccnc2c1O (stereo not drawn)
EC50 [7]: 1.01 µM (active)
IC50 (Exodeoxyribonuclease V): > 119 µM (inactive)
CC50 (Vero): 1.15 µM (active)
EC50 (cells [8]): 7.39 µM (active)
AC50 [9]: 0.638 µM (active)
EC50 [10]: 0.102 µM (active)
EC50 [11]: 0.543 µM (active)
EC50 (Streptococcus): 7.38 µM (active)
AC50 (INS1): 0.491 µM (active)
EC50 (cells [12]): > 350 µM (not active)
IC50 [13]: > 119 µM (inactive)
AC50 [14]: > 70 µM (inactive)
AC50 [15]: 3.61 µM (active)
